Results on two compounds are retold here after patent publication US20260048051A1, “TREATMENT OF INFLAMMATORY BOWEL DISEASE” (Atomwise Inc., priority 2024, published 2026).

For experiment [1], the system named is anti-CD40-induced inflammatory bowel disease (IBD). Briefly: Anti-CD40-induced mouse model of inflammatory bowel disease (IBD). It counts as in vivo, RAGN12 mice. Conditions: for colon histopathology scores / colon weight-to-length ratio: 7-day anti-CD40 IBD model. As to the method: This study was conducted in accordance with the Inotiv Boulder test facility standard operating procedures (SOPs), the World Health Organization Quality Practices in Basic Biomedical Research guidelines, and in compliance with all state and federal regulations, including USDA Animal Welfare Act 9 CFR Parts 1-3. Federal Register 39129, Jul. 22, 1993. This study was conducted in accordance with The Guide for the Care & Use of Laboratory Animals (8th Edition) and therefore in accordance with all Inotiv Boulder IACUC approved policies.
Prior to the start of the study, 6-7 week old, RAGN12 mice (Taconics) were acclimated for approximately 4 days. On study day −1, mice were weighed and randomized into treatment groups based on body weight. On study day 0, 200 μg of anti-CD40 monoclonal antibody (BioXcell) was administered intraperitoneally to induce disease. Test articles were dosed orally BID (the exception was the known TYK2 inhibitor at 3 mpk, which was dosed QD, with vehicle administered as the second daily dose). Bodyweight was measured daily on study days 1-6.
On day 7, the study was terminated; mice were anesthetized with Isoflurane and bled to exsanguination followed by cervical dislocation. The entire colon was removed, measured, and weighed. The plasma (for PK) and colon (for histology and cytokine measurements) samples were collected. Histopathology samples were evaluated for edema, inflammation (extent of macrophage, lymphocyte and polymorphonuclear (PMN) cell infiltration), gland loss, erosion, and hyperplasia.
Overall efficacy of test articles is based on a ratio of colon weight to length, and colon histopathology (FIGS. 6A and 6B). Additional readouts of the model support activity of an exemplary compound in IBD (FIG. 6C-6I).

The test system of a further experiment is IFNα/pSTAT5. Briefly: Whole blood potency (IFNα/pSTAT5), human. It counts as cell-based. Conditions: CD4+ T cells, read-out: Cellular Whole Blood Potency IC50 (IFNα/pSTAT5), Human. As to the method:
Heparinized human whole blood (5 different donors) was acquired from the Stanford Blood Center and used fresh for each experiment. Whole blood was plated (90 μl per well) into a 96-well assay plate immediately prior to initiation of the assay.
Test compounds were diluted serially (3-fold) in DMSO to generate a series of 10 concentrations (at 200× final assay concentrations). […] DMSO dilutions were diluted 10-fold in PBS to generate 20× final assay concentrations.
Pre-incubation of compounds and whole blood was initiated by adding 5 μl of the compound dilutions to the assay plates and incubated for 30 min at 37° C. Blood was then stimulated by the addition of IFN-α (5 μl of 200 ng/ml) (Miltenyi #130-093-873) followed by incubation at 37° C. for 15 min. Assays were terminated by the addition of Lyse/Fix (BD Biosciences #558049) (60 μl treated blood+1 ml Lyse/Fix) and incubated for 10 min. Cells were diluted 1:1 with Wash Buffer (PBS+0.3% BSA) and centrifuged to pellet white blood cells. Fixed cells were washed once with Wash Buffer and the pelleted cell plate was frozen at −80° C.
Cells were thawed and washed once with Wash Buffer prior to the addition of the α-CD3-Blue520 antibody (2 μg/ml final concentration; Biolegend #300481) and incubated for 30 min. Cells were washed twice in Wash Buffer followed by permeabilization in 100% cold methanol for 15 min. Cells were washed three times in Wash Buffer prior to the addition of the α-CD4-APC antibody ([…] final concentration; Biolegend #300514) and the α-pSTAT5-PE antibody (0.67 μg/ml final concentration; Biolegend #936904) and incubated for 90 min. Cells were washed twice in Wash Buffer and resuspended in 90 μl Wash Buffer prior to running on a LSRII flow cytometer (BD Biosciences, San Jose, CA). Total T cells (CD3+) and CD4+ cells were gated, and the Mean Fluorescence Intensity (MFI) was determined from the PE channel to quantify pSTAT5 signal.
The pSTAT5 MFI in the CD4+ gate was used to calculated Activity (% Control):
Data were then analyzed by non-linear regression to determine inhibitory potencies […] using the following equation in Collaborative Drug Discovery (Burlingame, CA): […]
where X: log concentration in Molar; Y: Activity (% Control); Top: curve top plateau; Bottom: curve bottom plateau, fixed range from −20-20%; Hill Slope: unconstrained. Potency data are reported as pIC50 or pIC90 values ±SD. IC90 values are defined from the fitted IC50 values: […]. FIG. 5A.
Exemplary compounds of the invention, compounds 1 and 2 were compared in this assay.

The next experiment has as its system IL-6 induced pSTAT3. Briefly: IL-6 induced pSTAT3 assay in TF-1 cells. It counts as cell-based. Conditions: Homo sapiens, read-out: Cellular selectivity (IL-6/pSTAT3). As to the method:
The following example describes the IL-6 induced pSTAT3 assay used to determine the cellular selectivity (IL-6/pSTAT3) of the TYK2 inhibitors.
TF-1 (ATCC®, CRL-2003™) cells were cultured in RPMI 1640 Medium, with GlutaMAX™ Supplement, HEPES for Cell Culture (Life Technologies, 72400047), 10% Fetal Bovine Serum (Life Technologies, 26400044), 2 ng/mL human recombinant GM-CSF (Life Technologies, PHC2013), 1 mM Sodium pyruvate (Life Technologies, 11360039), 1% MEM NEAA (Life Technologies, 11140-035), 1% Penicillin/Streptomycin (Life Technologies, 15140-122).
TF-1 (70×10^6) cells were starved overnight in T150 flasks (Opti-MEM™ I Reduced Serum Medium, no phenol red (Life Technologies, 11058-021), 1 mM Na pyruvate (Life Technologies, 11360039), 1% MEM NEAA (Life Technologies, 11140-035), and 1% Penicillin/Streptomycin (Life Technologies, 15140-122)) then seeded into 96-well TPP plates (150 000 cell/well) and incubated with test compounds (Final Concentration [nM]10000-0.05) for 30 minutes at 37° C. […] Stimulation was terminated by addition of lysis buffer (MSD K150SVD) and pSTAT3 detection was measured with Phospho-STAT3 (Tyr705) Kit MSD K150SVD)) according to manufacturer's instruction. Briefly, cell lysates were added to pre-blocked plates, sealed, and shake for 1 hour at room temperature. Plates were then washed and incubated with detection antibody for 1 hour at room temperature. After washing, Read Buffer was added, and plates were read on MSD instrument (Model 1300 MSD Quickplex SQ120).

Like-named read-outs stand apart in the source and are kept apart here.

For the compound `C[C@@H](c1ccc(Nc2cc(Nc3ncccc3S(C)(=O)=O)ncn2)nc1)N1CC2(COC2)C1` [Compound 1, (S)—N^4-(5-(1-(2-oxa-6-azaspiro[3.3]heptan-6-yl)ethyl)pyridin-2-yl)-N^6-(3-(methylsulfonyl)pyridin-2-yl)pyrimidine-4,6-diamine], the colon histopathology scores entry in experiment [1] is on record as “inhibition”. The colon weight-to-length ratio entry in experiment [1] is given as “inhibition”. Further, in experiment [1] (anti-CD40 IBD model), the “colon weight:length, efficacious dose” value came out at 200 mpk. The IC50 with IFNα/pSTAT5 is 29.1 nM; in the experiment on IFNα/pSTAT5 (Homo sapiens, CD4+ T) it was around 15.8 nM; in the experiment with IL-6 induced pSTAT3, above 10000 nM.

As to `C[C@@H](c1ccc(Nc2cc(Nc3ncc(F)cc3S(C)(=O)=O)ncn2)nc1)N1CC2(COC2)C1` [Compound 2, (S)—N^4-(5-(1-(2-oxa-6-azaspiro[3.3]heptan-6-yl)ethyl)pyridin-2-yl)-N^6-(5-fluoro-3-(methylsulfonyl)pyridin-2-yl)pyrimidine-4,6-diamine], the colon histopathology scores entry in experiment [1] is “inhibition”. Further, the colon weight-to-length ratio entry in experiment [1] is given as “inhibition”. In addition, the IC50 with IFNα/pSTAT5 is 15.8 nM; in the experiment with IFNα/pSTAT5 (Homo sapiens, CD4+ T) it was around 29 nM; in the experiment with IL-6 induced pSTAT3, above 10000 nM.
